# Experiment: Thermostability: quantitative determination of the cyclopentenone (UV absorbance near 215 nm) initially and after standing at 40° C. for six days
# Assay type: physicochemical
# Settings: for Amount of the Cyclopentenone (%) After Standing at 40° C. for six days / Amount of the Cyclopentenone (%) At Initial Stage: ratio of the cyclopentenone in the sample; for Amount of the Cyclopentenone (%) At Initial Stage: the rest being water and impurities
# Description: In order to compare the thermostability of the freeze-dried cyclopentenone obtained in Referential Example 1 and that of the α-type crystals obtained in Example 1, quantitative determination was conducted for the cyclopentenone on the initial stage and after allowing to stand at 40° C. for six days by means of the following quantitative determination method.
# Quantitative Determination Method: A sample (0.1 g) of the cyclopentenone is dissolved in 100 ml of water and 2 ml of the resulting solution are diluted to an extent of 50-fold. Absorbance (A) of this solution at the wave length of maximum absorption near the wave length of 215 nm is measured. Amount of the cyclopentenone (mg/ml) is calculated by the following formula.
# Amount of the Cyclopentenone (mg/ml)=(A÷773.4)×50000
Structure (SMILES),"Thermostability compared with the freeze-dried product (40° C. for six days, in words)",Amount of the Cyclopentenone (%) After Standing at 40° C. for six days,Amount of the Cyclopentenone (%) At Initial Stage
"O=C1C=C[C@@H](O)[C@@H]1O (relative stereo) [α-Type Crystals, trans-4,5-dihydroxy-2-cyclopenten-1-one]",significantly improved thermostability as compared with the freeze-dried product,95.2%,96.4%
"O=C1C=C[C@@H](O)[C@@H]1O (relative stereo) [Freeze-Dried Product, trans-4,5-dihydroxy-2-cyclopenten-1-one, reference compound]",–,28.2%,59.4%
